Results on 30 compounds are retold here after patent US5532233A, “Hetrazepine compounds which have useful pharmaceutical utility” (priority 1986, dated 1996).

One assay concerns the target benzodiazepine receptor. Kind of assay: benzodiazepine receptor bonding test using [^3 H] flunitrazepam as radioligand (FNB). The class given is binding.
The test system of assay [1] is PAF-induced aggregation of human thrombocytes. Kind of assay: PAF-induced aggregation of human thrombocytes in vitro (inhibition of blood platelet aggregation). Particulars: read-out: IC50 value PAF. The format is cell-based. As to the method:
The PAF-antagonistic activity of some compounds of formulae Ia and Ib was tested in vitro on the inhibition of blood platelet aggregation.
1. Tests in vitro: inhibition of blood platelet aggregation
The PAF-induced aggregation of human thrombocytes in vitro was used to determine the PAF antagonistic activity of substances. In order to obtain thrombocyte-rich plasma (TRP) blood is taken from an uncongested vein using a plastic syringe which contains 3.8% sodium citrate solution. The ratio of sodium citrate solution to blood is 1:9. After careful mixing the citrated blood is centrifuged for 20 minutes at 150×g (1200 rpm). The thrombocyte aggregation is measured using the method developed by Born and Cross (G. V. R. Born and M. J. Cross, J. Physiol. 168, 178 (1963)), with PAF being added to the TRP with constant stirring to initiate aggregation.
The test substance is added in a volume of 10 μl 2-3 minutes before aggregation is initiated. The solvent used is either distilled water, ethanol and/or dimethyl sulphoxide. Control mixtures are given corresponding volumes of these solvents. After the initial absorption has been recorded (2-3 minutes) aggregation is induced with PAF (5×10^-8 M).
The peak of the first aggregation wave is used in order to assess the effects of the substance. The PAF-induced maximum absorption rate (=maximum aggregation×100%) is tested at the same time in a parallel mixture (=control mixture in one of the channels of the 2-channel aggregometer) to each test mixture (second channel) and used as a 100% value. The aggregation value achieved under the influence of the test substance is […].
Each test substance is tested at concentrations of from 10^-3 to 10^-8 M with a random sampling scope of n=4 to determine any inhibitory activity on the PAF-induced thrombocyte aggregation. A concentration-activity curve is then drawn up from 3 concentrations and the IC50 is determined (concentration for a 50% inhibition of aggregation). With some compounds, only approximate tests for guidance are carried out.

Assay [2] shares this test system. Particulars: PAF-antagonistic activity known from European Patent Application No. 176 927; read-out: IC50 (the concentration at which a 50% inhibition of aggregation is measured); cited from earlier work.
The test system of another assay is PAF. Particulars: PAF-antagonistic activity; Kornecki et al.; read-out: IC50 (concentration for a 50% inhibition of aggregation); cited from earlier work.
Where [3] appears, read: [^3 H] flunitrazepam, racemate tested unless otherwise noted, read-out: IC50 value FNB (flunitrazepam bonding test).
The mark [4] stands for this setting: inhibition of PAF-induced (5×10^-8 M) human thrombocyte aggregation, racemate tested unless otherwise noted.
[5] abbreviates: [^3 H] flunitrazepam as radioligand, read-out: value in the benzodiazepine receptor bonding test.

Molecules are shown by their SMILES. Like-named read-outs stand apart in the source and are kept apart here. Bounds are passed on as bounds.

Turning to `CCN(CC)C(=O)C1CCc2c(sc3c2C(c2ccccc2Cl)=NCc2nnc(C)n2-3)C1` (stereo not shown) [Example 35], the IC50 was > 5000 nM at benzodiazepine receptor (setting [3]) and 3300 nM in assay [1] (Homo sapiens).

As for `CC(=S)N1CCc2c(sc3c2C(c2ccccc2Cl)=NCc2nnc(C)n2-3)C1` [Example 25, 3-Thioacetyl-6-(2-chlorophenyl)-11-methyl-2,3,4,5-tetrahydro-8H-pyrido[4',3':4,5]thieno[3,2-f][1,2,4]triazolo[4,3-a][1,4]diazepine], the IC50 on benzodiazepine receptor (setting [3]) was determined as 2300 nM; in assay [1] (Homo sapiens), 1000 nM.

Regarding `Cc1cnc2n1-c1sc3c(c1C(c1ccccc1Cl)=NC2)CC(C(=O)N1CCOCC1)CC3` (stereo not shown) [Example 10, 4-(Morpholin-4-yl-carbonyl)-6-(2-chlorophenyl)-11-methyl-2,3,4,5-tetrahydro-8H-[1]benzothieno[3,2-f]imidazo[1,2-a][1,4]diazepine], the IC50 in assay [1] (setting [4]) came out at 300 nM.

`Cc1nnc2n1-c1sc3c(c1C(c1ccccc1Cl)=NC2)CCCC3` [Compound (A), 6-(2-chlorophenyl)-11-methyl-2,3,4,5-tetrahydro-8H-[1]benzothieno[3,2-f][1,2,4]triazolo[4,3-a][1,4]diazepine, reference compound]: the IC50 was 21 nM at benzodiazepine receptor (setting [5]), 21 nM at benzodiazepine receptor (setting [3]), < 2500 nM in assay [1] (Homo sapiens) and 2500 nM in assay [2].

As to `Cc1nnc2n1-c1sc3c(c1C(c1ccccc1Cl)=NC2)CC(C1=NCCN1)CC3` (stereo not shown) [Example 33, 4-[2-Imidazolin-2-yl]-6-(2-chlorophenyl)-2,3,4,5-tetrahydro-8H-[1]benzothieno[3,2-f][1,2,4]triazolo[4,3-a][1,4]diazepine], in assay [1] (setting [4]), the IC50 was 2300 nM.

Turning to `Cc1nnc2n1-c1sc3c(c1C(c1ccccc1Cl)=NC2)CC(CN1CCOCC1)C3` (stereo not shown) [Example 66], the figures for the IC50 (on benzodiazepine receptor (setting [3]); in assay [1] (Homo sapiens)) were 920 nM and < 200 nM, respectively.

`Cc1cnc2n1-c1sc3c(c1C(c1ccccc1Cl)=NC2)CC(Cn1cncn1)CC3` (stereo not shown) [Example 63]: the IC50 was > 5000 nM at benzodiazepine receptor (setting [3]) and 400 nM in assay [1] (Homo sapiens).

For the compound `Cc1nnc2n1-c1sc3c(c1C(c1ccccc1Cl)=NC2)CCNC3` [Compound (B), 6-(2-chlorophenyl)-11-methyl-2,3,4,5-tetrahydro-8-H-pyrido[4',3':4,5]thieno-[3,2-f][1,2,4]triazolo[4,3-a][1,4]diazepine, reference compound], the IC50 at benzodiazepine receptor (setting [5]) is 35 nM; at benzodiazepine receptor (setting [3]) it was 35 nM; in assay [1] (Homo sapiens) it was < 7000 nM; in assay [2], 10000 nM.

With `CC(=O)NCC(=O)N1CCc2c(sc3c2C(c2ccccc2Cl)=NCc2nnc(C)n2-3)C1` [Example 86, 3-Acetylaminomethylcarbonyl-6-(2-chlorophenyl)-11-methyl-2,3,4,5-tetrahydro-8H-pyrido[4',3':4,5]thieno[3,2-f][1,2,4]triazolo[4,3-a][1,4]diazepine], the IC50 at benzodiazepine receptor (setting [3]) is > 5000 nM; in assay [1] (Homo sapiens), 1000 nM.

In the case of `Cc1cnc2n1-c1sc3c(c1C(c1ccccc1Cl)=NC2)CC(CN1CCOCC1)C3` (stereo not shown) [Example 113], the IC50 at benzodiazepine receptor (setting [3]) was 3000 nM; in assay [1] (Homo sapiens), < 200 nM.

As to `Cc1nnc2n1-c1sc3c(c1C(c1ccccc1Cl)=NC2)CC(C(=O)NCC(=O)N1CCOCC1)C3` (stereo not shown) [Example 58], the results for the IC50 (on benzodiazepine receptor (setting [3]); in assay [1] (Homo sapiens)) were 380 nM and 400 nM, respectively.

As for `CC(=O)OCC1Cc2sc3c(c2C1)C(c1ccccc1Cl)=NCc1nnc(C)n1-3` (stereo not shown) [Example 19, 3-Acetoxymethyl-5-(2-chlorophenyl)-10-methyl-3,4-dihydro-2H,7H-cyclopenta[4,5]thieno[3,2-f][1,2,4]triazolo[4,3-a][1,4]diazepine], in assay [1] (setting [4]), the IC50 amounted to 600 nM.

Regarding `CC(=O)OCC1CCc2sc3c(c2C1)C(c1ccccc1Cl)=NCc1nnc(C)n1-3` (stereo not shown) [Example 62], the IC50 on benzodiazepine receptor (setting [3]) turned out to be 4600 nM; in assay [1] (Homo sapiens), 400 nM.

In the case of `Cc1nnc2n1-c1sc3c(c1C(c1ccccc1Cl)=NC2)C(C(=O)N(C)C)CC3` (stereo not shown) [Example 46], the IC50 was 1460 nM on benzodiazepine receptor (setting [3]) and 4800 nM in assay [1] (Homo sapiens).

For the compound `Cc1nnc2n1-c1sc3c(c1C(c1ccccc1Cl)=NC2)CCC(C(=O)N1CCOCC1)C3` (stereo not shown) [Example 2, 3-(Morpholin-4-yl-carbonyl)-6-(2-chlorophenyl)-11-methyl-2,3,4,5-tetrahydro-8H-[1]benzothieno[3,2-f][1,2,4]triazolo[4,3-a][1,4]diazepine], the IC50 is > 5000 nM on benzodiazepine receptor (setting [3]) and 2500 nM in assay [1] (Homo sapiens).

Take `Cc1nnc2n1-c1ccc(Cl)cc1C(c1ccccc1Cl)=NC2` [Triazolam, reference compound]: the results for the IC50 (at benzodiazepine receptor (setting [3]); in assay [1] (Homo sapiens); in the assay on PAF) were 1.4 nM, 9000 nM and 9000 nM, respectively.

Consider `Cc1nnc2n1-c1sc3c(c1C(c1ccccc1Cl)=NC2)CC(C(=O)N1CCN(C)CC1)CC3` (stereo not shown) [Example 37], for which the IC50 at benzodiazepine receptor (setting [3]) was > 5000 nM; in assay [1] (Homo sapiens), 1800 nM.

`CCN(CC)C(=O)C1CCc2sc3c(c2C1)C(c1ccccc1Cl)=NCc1ncc(C)n1-3` (stereo not shown) [Example 11]: the IC50 turned out to be 5000 nM at benzodiazepine receptor (setting [3]) and 500 nM in assay [1] (Homo sapiens).

`CCN(CC)C(=O)C1CCc2sc3c(c2C1)C(c1ccccc1Cl)=NCc1nnc(C)n1-3` (stereo not shown) [Example 36]: the IC50 on benzodiazepine receptor (setting [3]) was > 5000 nM; in assay [1] (Homo sapiens), 400 nM.

With `Cc1nnc2n1-c1sc3c(c1C(c1ccccc1Cl)=NC2)CC(CO)CC3` (stereo not shown) [Example 17, 4-(Hydroxymethyl)-6-(2-chlorophenyl)-11-methyl-2,3,4,5-tetrahydro-8H-[1]benzothieno[3,2-f][1,2]triazolo[4,3-a][1,4]diazepine], the IC50 at benzodiazepine receptor (setting [3]) worked out at 1070 nM; in assay [1] (Homo sapiens) it was 1800 nM.

In the case of `Cc1nnc2n1-c1ccc(Cl)cc1C(c1ccccc1)=NC2` [Alprazolam, reference compound], the results for the IC50 (at benzodiazepine receptor (setting [3]); in assay [1] (Homo sapiens); in the assay with PAF) were 5.5 nM, 14000 nM and 14000 nM, respectively.

For `CC(=O)OCC1Cc2sc3c(c2C1)C(c1ccccc1Cl)=NCc1nncn1-3` (stereo not shown) [Example 68], the IC50 in assay [1] (setting [4]) is 400 nM.

With `Cc1nnc2n1-c1sc3c(c1C(c1ccccc1Cl)=NC2)CC(C1=NCCO1)CC3` (stereo not shown) [Example 79], the results for the IC50 (on benzodiazepine receptor (setting [3]); in assay [1] (Homo sapiens)) were 4800 nM and 2200 nM, respectively.

Turning to `OCC1Cc2sc3c(c2C1)C(c1ccccc1Cl)=NCc1nncn1-3` (stereo not shown) [Example 18, 3-(Hydroxymethyl)-5-(2-chlorophenyl)-3,4-dihydro-2H,7H-cyclopenta[4,5]thieno[3,2-f][1,2,4]triazolo[4,3-a][1,4]diazepine], the IC50 in assay [1] (setting [4]) is 1300 nM.

For the compound `Cc1nnc2n1-c1sc3c(c1C(c1ccccc1Cl)=NC2)CC(CN1CCOCC1)CC3` (stereo not shown) [Example 21, 4-(N-Morpholinomethyl)-6-(2-chlorophenyl)-11-methyl-2,3,4,5-tetrahydro-8H-[1]benzothieno[3,2-f][1,2,4]triazolo[4,3-a][1,4]-diazepine], the IC50 on benzodiazepine receptor (setting [3]) was > 5000 nM; in assay [1] (Homo sapiens) it was 300 nM.

Turning to `Cc1nnc2n1-c1sc3c(c1C(c1ccccc1Cl)=NC2)CC(C(=O)N1CCOCC1)C3` (stereo not shown) [Example 7, 3-(Morpholin-4-yl-carbonyl)-5-(2-chlorophenyl)-10-methyl-3,4-dihydro-2H,7H-cyclopenta[4,5]thieno[3,2-f][1,2,4]triazolo[4,3-a][1,4]diazepine], the results for the IC50 (on benzodiazepine receptor (setting [3]); in assay [1] (Homo sapiens)) were 3600 nM and 300 nM, respectively.

On to `Cc1nnc2n1-c1sc3c(c1C(c1ccccc1Cl)=NC2)CC(C(=O)N(C)CCO)CC3` (stereo not shown) [Example 38], for which the IC50 in assay [1] (setting [4]) was determined as 2700 nM.

Take `Cc1nnc2n1-c1sc3c(c1C(c1ccccc1Cl)=NC2)CC(C1=NC(C)(C)CN1)CC3` (stereo not shown) [Example 83]: in assay [1] (setting [4]), the IC50 amounted to 900 nM.

As to `Cc1cnc2n1-c1sc3c(c1C(c1ccccc1Cl)=NC2)CC(CO)CC3` (stereo not shown) [Example 64], the IC50 in assay [1] (setting [4]) was 800 nM.

For the compound `Cc1nnc2n1-c1sc3c(c1C(c1ccccc1Cl)=NC2)CC(C(=O)N1CCOCC1)CC3` (stereo not shown) [Example 1, 4-(Morpholin-4-yl-carbonyl)-6-(2-chlorophenyl)-11-methyl-2,3,4,5-tetrahydro-8H-[1]benzothieno[3,2-f][1,2,4]triazolo[4,3-a][1,4]diazepine], the IC50 on benzodiazepine receptor (setting [3]) was > 5000 nM; in assay [1] (Homo sapiens), 500 nM.
